# In patent US5670538A, “Use of prodelphinidins for obtaining medicaments intended for the treatment of arthrosis” (Laboratoires Dolisos, priority 1992, dated 1997):
# Test system: human articular chondrocytes
# Assay: Radioimmunoassay of type II collagen (coll. II) produced in tridimensional culture of human chondrocytes
# Assay type: cell-based
# Excerpt: The model used for testing the proanthocyanidols, namely the tridimensional culture of human chondrocytes allows chondrorepair to be quantified by the production of matrix substances: type II collagen, proteoglycans, and chondroresorption by the reduction in the levels of prostaglandin E2 and of OH° and O°2 type free radicals produced.
# 1. Tridimensional culture of human chondrocytes
# The technique used has been described in detail (Bassleer et al., 1986).
# Briefly, human articular chondrocytes are cultivated in DMEM (Dulbecco's Modification of Eagle's Medium--ICN--Gand, Belgium) with either Ultroser G 1% (GIBCO, Gand, Belgium) or 10% of foetal calf serum (ICN--Gand--Belgium), and 50 μg of ascorbic acid/ml added to it. The cartilage originates from the apparently normal zone of heads of human femur suffering from arthrosis, immediately after an operation carried out to insert a total hip prosthesis; it can also originate from the head of a healthy femur, but which has undergone a traumatism and has had to be replaced. This cartilage is then digested by clostridial collagenase 1 mg/ml (Boehringer-Mannheim, Germany) in a buffer (NaCl 120 mM, CaCl2 1 mM, KCl 5 mM, KH2 PO4 1 mM, NaHCO3 25 mM, glucose 2 mM and Hepes 30 mM, pH 7.4) for 24 hours. After 6 successive washings and centrifugations, the chondrocytes, isolated from their matrix, are cultured in flasks (10^6 cells/2 ml of culture medium) placed on a gyrator (10 rpm). The cultures are kept at 37° C. in an atmosphere of air 95%-CO2 5% (Bassleer et al., 1986). Cultivated under these conditions, after 4 to 5 days the chondrocytes form a tridimensional cluster in each flask. These clusters, which at first have a flocculent appearance, then tend to condense during the culture. After two weeks, their diameter is, in general, from 1 to 2 mm.
# The fresh weight of the clusters increases with the duration of the culture, above all during the few first days.
# 3. Radioimmunoassay of type II collagen (coll. II)
# The method for the radioimmunoassay of coll. II has been described in detail (Henrotin et al., 1990). The coll. II is extracted from human articular cartilage according to the technique described by Herbage et al. (1977). The antiserum against coll. II was obtained from rabbits according to the technique of Vaitukaitis et al. (1971).
# The assay is carried out by sequential saturation. In the first instance, the radioimmunoassay is carried out in a 0.3 ml volume consisting of 0.2 ml of incubation buffer (PBS-50 mM PO4, 300 mM NaCl, 5 g/l BSA (W/V), 6.7 mM sodium azide, pH 7.4) containing the reference coll. II (0.5 to 500 ng) or the sample to be assayed and 0.1 ml of anti-coll. II antiserum from guinea pigs diluted to 1/5000 (24 hours at 4° C.). In the second instance, 0.1 ml of ^125 I-coll. II tracer labelled according to the iodogenic technique (Salacynski et al., 1979 and diluted so as to obtain 20,000 cpm/0.1 ml) is added. After 24 hours at 4° C., the collagen-antibody complexes are separated from the free radioactive coll. II by the double antibody system (Franchimont et al. 1983). Sequential saturation gives a sensitivity of 3 ng/tube. The accuracy of the method is 10%. The coefficients of the intra- and inter assay variation are 10% and 20% respectively.
# The assay is specific to human articular type II collagen.
# No cross reaction is obtained with bovine collagen of type I, III or IV.
# The culture media are stored at -20° C. in the presence of enzymatic inhibitors (Oegema et al., 1975). These media are assayed by the radio immunological method without any treatment beforehand. The chondrocyte clusters are washed and dissociated with ultrasonics according to the method described for the assay of the PGs. After centrifugation (1500 rpm, 10 minutes), the residue is extracted using 500 mM acetic acid under agitation for 24 hours at 4° C. The supernatant of the homogenate and the extract of the residue are mixed together and assayed after equilibration at pH 7.4 using 4M NaOH.
# The recovery of coll. […]
smiles,measurement,setting,value
"Oc1cc(O)c2c(c1)O[C@H](c1cc(O)c(O)c(O)c1)[C@@H](O)[C@@H]2c1c(O)cc(O)c2c1O[C@H](c1cc(O)c(O)c(O)c1)[C@@H](O)[C@@H]2c1c(O)cc(O)c2c1O[C@H](c1cc(O)c(O)c(O)c1)[C@@H](O)C2 [Substance Ic, GC-(4 alpha→8) GC-(4 a→8)-GC]",Average concentrations (m ± SD) of type II collagen in the clusters of chondrocytes at the end of 12 days of culture,"1% Ultroser G, 1 μg/ml",81 ± 6 ng per μg of DNA
same,"Collagen II in the clusters over 12 days, effect in words","1% Ultroser G, 1 μg/ml",stimulant
same,"Cumulative release of coll.II over 12 days, Abs","1% Ultroser G, 1 μg/ml",256 ng/μg DNA/12 days
same,"Type II collagen released in the culture medium, effect in words","1% Ultroser G, 1 μg/ml",significant effect
same,Average concentrations (m ± SD) of type II collagen in the clusters of chondrocytes at the end of 12 days of culture,"1% Ultroser G, 10 μg/ml",94 ± 7 ng per μg of DNA
same,"Cumulative release of coll.II over 12 days, Abs","1% Ultroser G, 10 μg/ml",292 ng/μg DNA/12 days
same,Average concentrations (m ± SD) of type II collagen in the clusters of chondrocytes at the end of 12 days of culture,"1% Ultroser G, 100 μg/ml",121 ± 13 ng per μg of DNA
same,"Cumulative release of coll.II over 12 days, Abs","1% Ultroser G, 100 μg/ml",337 ng/μg DNA/12 days
same,Coll. II released in the culture medium,"1% Ultroser G, culture time 0-4 days, 1 μg/ml",149.4 ± 8.7 ng/μg DNA/96 h
same,Coll. II released in the culture medium,"1% Ultroser G, culture time 0-4 days, 10 μg/ml",162 ± 11 ng/μg DNA/96 h
same,Coll. II released in the culture medium,"1% Ultroser G, culture time 0-4 days, 100 μg/ml",182 ± 5.6 ng/μg DNA/96 h
same,Coll. II released in the culture medium,"1% Ultroser G, culture time 0-8 days (so in the source), 1 μg/ml",65.8 ± 7.4 ng/μg DNA/96 h
same,Coll. II released in the culture medium,"1% Ultroser G, culture time 0-8 days (so in the source), 10 μg/ml",70.5 ± 7.1 ng/μg DNA/96 h
same,Coll. II released in the culture medium,"1% Ultroser G, culture time 0-8 days (so in the source), 100 μg/ml",93.8 ± 10.5 ng/μg DNA/96 h
same,Coll. II released in the culture medium,"1% Ultroser G, culture time 0-12 days (so in the source), 1 μg/ml",41.2 ± 4.6 ng/μg DNA/96 h
same,Coll. II released in the culture medium,"1% Ultroser G, culture time 0-12 days (so in the source), 10 μg/ml",50.6 ± 4.2 ng/μg DNA/96 h
same,Coll. II released in the culture medium,"1% Ultroser G, culture time 0-12 days (so in the source), 100 μg/ml",61.1 ± 5.2 ng/μg DNA/96 h
same,activity at 1 µg/mL,"Homo sapiens, Chondrocyte, 288 h, 1% Ultroser G, 1 μg/ml, control = 100, read-out: Cumulative release of coll.II over 12 days, %",134%
same,activity at 10 µg/mL,"Homo sapiens, Chondrocyte, 288 h, 1% Ultroser G, 10 μg/ml, control = 100, read-out: Cumulative release of coll.II over 12 days, %",153%
same,activity at 100 µg/mL,"Homo sapiens, Chondrocyte, 288 h, 1% Ultroser G, 100 μg/ml, control = 100, read-out: Cumulative release of coll.II over 12 days, %",176%
same,"Type II collagen in the culture media, effect in words","foetal calf serum, 10 and 100 μg/ml",increases
same,Coll. II released in the culture medium,"foetal calf serum, Table 18, 0-4 days, 10 μg/ml",44.1 ± 6.98 ng/μg DNA/96 H
same,Coll. II released in the culture medium,"foetal calf serum, Table 18, 0-4 days, 100 μg/ml",70.7 ± 10.3 ng/μg DNA/96 H
same,Coll. II released in the culture medium,"foetal calf serum, Table 18, 4-8 days, 10 μg/ml",33.5 ± 3.71 ng/μg DNA/96 H
same,Coll. II released in the culture medium,"foetal calf serum, Table 18, 4-8 days, 100 μg/ml",41.7 ng/μg DNA/96 H
same,Coll. II released in the culture medium,"foetal calf serum, Table 19, 0-4 days, 10 μg/ml",37.9 ± 5.47 ng/μg DNA/96 H
same,Coll. II released in the culture medium,"foetal calf serum, Table 19, 0-4 days, 100 μg/ml",53.2 ± 4.21 ng/μg DNA/96 H
same,Coll. II released in the culture medium,"foetal calf serum, Table 19, 4-8 days, 10 μg/ml",23.3 ± 2.11 ng/μg DNA/96 H
same,Coll. II released in the culture medium,"foetal calf serum, Table 19, 4-8 days, 100 μg/ml",33.5 ng/μg DNA/96 H
same,Coll. II in the clusters,"foetal calf serum, experiment 397, 4-8 days, 10 μg/ml",85.9 ± 14.45 ng/μg DNA
same,Coll. II in the clusters,"foetal calf serum, experiment 397, 4-8 days, 100 μg/ml",109.8 ng/μg DNA
same,"Collagen II in the clusters, effect in words","foetal calf serum, experiment 397, 10 and 100 μg/ml",An increase in collagen II is observed
